We go through 4 molecules from article PMC3262893 (Phytochemistry, 2011).

This assay deals with 20S proteasome, human (Homo sapiens, UniProt P28074). The assay can be described thus: 20S proteasome assay. It is filed as biochemical. The note with it: chymotrypsin-like activity; for IC50: read-out: 20S proteasome inhibition IC50; for 20S proteasome inhibitory activity: at 50 μM.

*1 amine or outer side, *2 acyl side, *3 side chain or, on linkers, in order; H or OH if unused. Where a SMILES comes first, the peptide text is derived from it. Bridges are numbered along the chain shown (N, C = ends). [ ]: non-standard residue; d: D form. ξ: configuration not given here. X3 = CC(=O)N(C)C(Cc1ccc(O)cc1)C(=O)OC(CC(O)C(O)CC(C)C)CC(N[*:2])C(O)C(=O)[*:1]; X2 = COc1ccc(CCC(N[*:1])C(=O)[*:2])cc1; d(aIle) = CC[C@H](C)[C@@H](N)C(=O)O; hTyr = N[C@@H](CCc1ccc(O)cc1)C(=O)O; hPhe = N[C@@H](CCc1ccccc1)C(=O)O; X1 = C/C=C(/N[*:1])C(=O)[*:2]; ξhPhe = NC(CCc1ccccc1)C(=O)O; NMeA = CN[C@@H](C)C(=O)O; CO = O=C([*:1])[*:2]

As to `C/C=C1/NC(=O)[C@H](CO)NC(=O)[C@@H]([C@@H](C)CC)NC(=O)[C@@H]2CCCN2C(=O)[C@@H]2CCCN2C(=O)CNC(=O)[C@H](CCC(N)=O)NC(=O)C(O)C(CC(CC(O)C(O)CC(C)C)OC(=O)C(Cc2ccc(O)cc2)N(C)C(C)=O)NC(=O)[C@@H]2CCCN2C(=O)C(CCc2ccccc2)NC(=O)[C@H]([C@@H](C)O)NC1=O` (stereo partly shown) [compound 4, Lyngbyazothrin D] (QGPP[d(aIle)]S[X1]T[ξhPhe]P; linker N-C via X3), the half-inhibitory concentration (IC50) came to 19.2 µM. Take `CC[C@H](C)[C@@H]1NC(=O)[C@H](NC(=O)N[C@H](Cc2ccccc2)C(=O)O)CCCCNC(=O)[C@H](CCc2ccccc2)NC(=O)[C@H](C)N(C)C(=O)[C@H](CCc2ccc(O)cc2)NC1=O` [compound 1, Lyngbyaureidamide A] ({dF-CO}-[dK]I[hTyr][NMeA][hPhe]; lactam 1-C): the “20S proteasome inhibitory activity” value was “not active”. On to `C/C=C1/NC(=O)[C@H](CO)NC(=O)[C@@H]([C@@H](C)CC)NC(=O)[C@@H]2CCCN2C(=O)[C@@H]2CCCN2C(=O)CNC(=O)[C@H](CCC(N)=O)NC(=O)C(O)C(CC(CC(O)C(O)CC(C)C)OC(=O)C(Cc2ccc(O)cc2)N(C)C(C)=O)NC(=O)[C@@H]2CCCN2C(=O)C(CCc2ccc(OC)cc2)NC(=O)[C@H]([C@@H](C)O)NC1=O` (stereo partly shown) [compound 3, Lyngbyazothrin C] (QGPP[d(aIle)]S[X1]T[X2]P; linker N-C via X3), for which the half-inhibitory concentration (IC50) was found to be 7.1 µM. With `CC[C@H](C)[C@@H]1NC(=O)[C@H](NC(=O)N[C@H](Cc2ccccc2)C(=O)O)CCCCNC(=O)[C@H](Cc2ccccc2)NC(=O)[C@H](C)N(C)C(=O)[C@H](CCc2ccc(O)cc2)NC1=O` [compound 2, Lyngbyaureidamide B] ({dF-CO}-[dK]I[hTyr][NMeA]F; lactam 1-C), the “20S proteasome inhibitory activity” value is given as “not active”.
